The values below come from patent US20040101576A1, “IMMUNOPOTENTIATORS” (priority 1997, published 2004).

The test concerns Langerhans' cells. To be noted: antigen (trinitrobenzenesulfonic acid, 1 mg/ml) added, Langerhans' cells UV irradiated, 3 mM glutathione added during irradiation; antigen only 17,500, antigen + UV 5,000 (FIG. 1).

Experimental: An antigen (trinitrobenzenesulfonic acid, 1 mg/ml) was added to Langerhans' cells and, after cleaning, they were mixed and cultured with T cells obtained by purifying lymph gland cell floating fluid with a nylon fiber column (Wako).

Take `N[C@@H](CCC(=O)N[C@@H](CS)C(=O)NCC(=O)O)C(=O)O` [glutathione]: the “multiplication of the T cells” value is recorded as 11,000.
